# Source: patent publication US20160257697A1, “THIOPHENE-SUBSTITUTED TETRACYCLIC COMPOUNDS AND METHODS OFUSE THEREOF FOR THE TREATMENT OF VIRAL DISEASES” (priority 2013, published 2016)
# Like-named read-outs stand apart in the source and are kept apart here.
# Legend:
# Experiment in all cases: microbe, parasite or virus in culture
# Format in all cases: cell-based, Hepatitis C virus (HCV)
# [1] = test system: HCV replicon 1AY93H
# Summary of the method: (§1)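 Cells seeded 2000/well + compound; 0.5% DMSO, 5% FBS; harvest day 3, lyse. Multiplex TaqMan RT-PCR for replicon (Neo probe) and cyclophilin RNA; amounts from Ct vs log(ng) linear regression of replicon total RNA standards.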
# [2] = test system: HCV replicon 1A; settings: Replicon Assay A
# Summary of the method: as §1
# [3] = test system: HCV replicon 2B
# Summary of the method: as §1
# [4] = test system: HCV replicon 1AQ30D; settings: Replicon Assay B
# [5] = test system: HCV replicon 1B; settings: Replicon Assay B
# [6] = HCV replicon 1A Y93H; Replicon Assay A; read-out: 1A Y93H IC50
# [7] = HCV replicon 2B; Replicon Assay A; read-out: 2B IC50
# [8] = HCV replicon 1A Q30D, read-out: 1A Q30D IC50
# [9] = read-out: 1A Y93H IC50; replicon 1AY93H; Replicon Assay A
# [10] = read-out: 2B IC50; replicon 2B; Replicon Assay A
# [11] = read-out: 1A Y93H IC50; HCV replicon 1A Y93H; Replicon Assay A
# [12] = read-out: 2B IC50; HCV replicon 2B; Replicon Assay A
# [13] = Hepatitis C virus, read-out: 1A Q30D IC50, HCV replicon 1A Q30D
# [14] = Hepatitis C virus, HCV replicon 1B
# [15] = read-out: 1A Q30D IC50, replicon 1AQ30D
Structure (SMILES),"IC50 [1, 6] [pM]",IC50 ([2]; HCV replicon 1A) [pM],"IC50 [3, 7] [pM]","IC50 [4, 8] [nM]",IC50 ([5]; HCV replicon 1B) [pM],"IC50 [1, 9] [pM]","IC50 [3, 10] [pM]","IC50 ([5]; Hepatitis C virus, replicon 1B) [pM]","IC50 [4, 15] [nM]",further results
COC(=O)NC(C(=O)N1CCCC1c1ncc(-c2cc(F)c3c(c2)OC(c2ccc(C4CC4)s2)n2c-3cc3cc(-c4cnc(C5CC6CC6N5C(=O)C(NC(=O)OC)C5CCOCC5)[nH]4)ccc32)[nH]1)C(C)C (mixture of isomers) [Compound 651],2.3,1.3,8.1,0.0178,1.8,,,,,
"COC(=O)N[C@H](C(=O)C1CCC[C@H]1c1ncc(-c2ccc3c(c2)cc2n3C(c3ccc(C(F)(F)F)s3)Oc3cc(-c4cnc([C@@H]5CCCN5C(=O)[C@@H](NC(=O)OC)C(C)C)[nH]4)cc(F)c3-2)[nH]1)C(C)C (single isomer, unassigned) [Compound 89]",,,,,,33,63,1.5,,"IC50 ([2]; Hepatitis C virus, replicon 1A): 1 pM; IC50 ([4]; Hepatitis C virus, read-out: 1A Q30D IC50 (nM), replicon 1AQ30D): 0.33 nM"
"COC(=O)NC(C(=O)N1CCC[C@H]1c1ncc(-c2ccc3c(c2)cc2n3C(c3ccc(C4CC4)s3)Oc3cc(-c4cnc([C@@H]5C[C@H]6C[C@H]6N5C(=O)[C@@H](NC(=O)OC)C(C)C)[nH]4)cc(F)c3-2)[nH]1)C1C[C@@H](C)O[C@@H](C)C1 (single isomer, unassigned) [Compound 538]",,4.7,,,,,,,,"IC50 [1, 11]: 7.03 pM; IC50 [3, 12]: 51.3 pM; IC50 [4, 13]: 0.136 nM; IC50 [5, 14]: 3.26 pM"
"COC(=O)NC(C(=O)N1CCC[C@H]1c1ncc(-c2ccc3c(c2)cc2n3C(c3ccc(C4CC4)s3)Oc3cc(-c4cnc([C@@H]5CCCN5C(=O)[C@@H](NC(=O)OC)C(C)C)[nH]4)cc(F)c3-2)[nH]1)C1CCO[C@H](C)C1 (single isomer, unassigned) [Compound 136]",,,,,,200,230,,0.9,IC50 ([2]; replicon 1A): 1.8 pM; IC50 ([5]; replicon 1B): 1.7 pM
COC(=O)NC(C(=O)N1CCCC1c1ncc(-c2cc(F)c3c(c2)OC(c2cc4c(s2)CC2(C4)OCCO2)n2c-3cc3cc(-c4cnc(C5CCCN5C(=O)C(NC(=O)OC)C(C)C)[nH]4)ccc32)[nH]1)C(C)C (mixture of isomers) [Compound 847],214,3.8,312,1.76,5,,,,,
"COC(=O)N[C@H](C(=O)N1CCC[C@H]1c1ncc(-c2ccc3c(c2)cc2n3C(c3ccc(C4CC4)s3)Oc3cc(-c4cnc([C@@H]5CCCN5C(=O)[C@@H](NC(=O)OC)C5CCOCC5)[nH]4)cc(C)c3-2)[nH]1)C(C)C (single isomer, unassigned) [Compound 122]",,,,,,7,3,2.3,0.029,"IC50 ([2]; Hepatitis C virus, replicon 1A): 2 pM"
"COCc1ccc(C2Oc3cc(-c4cnc([C@@H]5CCCN5C(=O)[C@@H](NC(=O)OC)C(C)C)[nH]4)cc(F)c3-c3cc4cc(-c5c[nH]c([C@@H]6CCCN6C(=O)[C@@H](NC(=O)OC)C(C)C)n5)ccc4n32)s1 (single isomer, unassigned) [Compound 513]",,3.93,,,,,,,,"IC50 [1, 11]: 38.5 pM; IC50 [3, 12]: 409 pM; IC50 [4, 13]: 0.986 nM; IC50 [5, 14]: 4.25 pM"
"COC(=O)NC(C(=O)N1CCC[C@H]1c1ncc(-c2ccc3c(c2)cc2n3C(c3cc4ccccc4s3)Oc3cc(-c4cnc([C@@H]5CCCN5C(=O)[C@@H](NC(=O)OC)C5CCOCC5)[nH]4)cc(F)c3-2)[nH]1)C(C)(C)F (single isomer, unassigned) [Compound 182]",,,,,,44,5,2,0.049,IC50 ([2]; replicon 1A): 2 pM
"COC(=O)N[C@H](C(=O)N1CCC[C@H]1c1ncc(-c2cc(F)c3c(c2)OC(c2ccc(CC(C)(C)OC)s2)n2c-3cc3cc(-c4cnc([C@@H]5CCCN5C(=O)[C@@H](NC(=O)OC)C(C)C)[nH]4)ccc32)[nH]1)C(C)C (single isomer, unassigned) [Compound 844]",23,2.2,213,0.239,2.6,,,,,
